Experimental data taken from patent US10087187B2, “Imidazopyridazine derivatives as PI3KB inhibitors” (Janssen Pharmaceutica NV, priority 2014, dated 2018).
Where two headings read alike, the source gives them in different places.

What was measured:
PIK3Cα_h = PIK3Cα_h (Homo sapiens (Human), UniProt P42336); test: KINOMEscan enzyme binding assay, PIK3Cα; conditions: DiscoveRx
Protocol: (§1) Enzyme Binding Assays (KINOMEscan®) Kinase enzyme binding affinities of compounds disclosed herein were determined using the KINOMEscan technology performed by DiscoveRx Corporation, San Diego, Calif., USA (www.kinomescan.com).

PIK3Cβ_h = PIK3Cβ_h (Homo sapiens (Human), UniProt P42338); test: KINOMEscan enzyme binding assay, PIK3Cβ; conditions: DiscoveRx
Protocol: as §1, with “(www.kinomescan.com). Table A reports the obtained Kd values (nM), with the Kd being the inhibitor binding constant: […]” for “(www.kinomescan.com).”

PIK3Cδ_h = PIK3Cδ_h (Homo sapiens (Human), UniProt O00329); test: KINOMEscan enzyme binding assay, PIK3Cδ; conditions: DiscoveRx
Protocol: as §1, with “(www.kinomescan.com). Table A reports the obtained Kd values (nM), with the Kd being the inhibitor binding constant: […]” for “(www.kinomescan.com).”

PIK3Cγ_h = PIK3Cγ_h (Homo sapiens (Human), UniProt P48736); test: KINOMEscan enzyme binding assay, PIK3Cγ; conditions: DiscoveRx
Protocol: as §1

MTOR_h = MTOR_h (Homo sapiens (Human), UniProt P42345); test: KINOMEscan enzyme binding assay, MTOR; conditions: DiscoveRx
Protocol: as §1

[1] = tested on: Akt phosphorylated at Ser473 in PC-3 cells; test: Cellular assay: phosphorylation of Akt (Ser473) in PC-3 cells, MSD ELISA; format: cell-based; conditions: 60 min incubation with compound, read-out: IC50 pAkt_S473
Protocol: (§2) Cellular activity of PI3Kβ inhibitors was determined by quantifying the phosphorylation of Akt in PC-3 cells. Akt phosphorylated at Ser473 and Thr308 were measured using an enzyme-linked immunosorbent assay (ELISA; Meso Scale Discovery (MSD), Gaithersburg, Md.) and specific primary antibodies from MSD.
(§3) On day 1, PC3 cells (ATCC # […]) were seeded into PerkinElmer MW96 plates at 25.000 cells per well, in 75 μl complete culture medium (DMEM (Dulbecco's Modified Eagle's Medium) high glucose, AQmedia™, D0819, Sigma-Aldrich) containing 10% heat inactivated FCS (Fetal Bovine Serum) and incubated at 37° C., 5% CO2 during 24 hours. On day 2, compound or DMSO (dimethyl sulfoxide) (0.3%) was added and cells were further incubated for 60 min at 37° C., 5% CO2 in a total volume of 100 μl of medium.
(§4) The phosphoprotein assay was executed according to vendor instructions in the Phospho-Akt (Ser473) Assay Whole Cell Lysate Kit (MSD # K15100D-3) and the Phospho-Akt (Thr308) Assay Whole Cell Lysate Kit (MSD # K151DYD-3) using the lysis, blocking and wash buffer provided.
(§5) Briefly, at the end of the cell treatment period, media were removed by aspiration and adherent cells were lysed in 50 μl ice-cold lysis buffer. MSD plates are supplied pre-coated with capture antibodies for Phospho-Akt (Ser473 and Thr308). After blocking, lysates from tissue culture plates were added and plates were washed. Then, a solution containing the detection antibody (anti-total Akt conjugated with an electrochemiluminescent compound-MSD Sulfo-tag label) was added. The signals were detected using an MSD SECTOR Imager 6000 and are proportional to the phospho-Akt titres.
(§6) Data were processed. The percentage of inhibition was plotted against the log concentration of test compounds, and the sigmoidal log concentration-effect curve of best fit was calculated by nonlinear regression analysis. From these concentration-response curves, the IC50 values were calculated. Five concentrations were used for curve fitting.

[2] = tested on: Akt phosphorylated at Thr308 in PC-3 cells; test: Cellular assay: phosphorylation of Akt (Thr308) in PC-3 cells, MSD ELISA; format: cell-based; conditions: 60 min incubation with compound, read-out: IC50 pAkt_Thr308
Protocol: as §2, §3, §4, §5, §6

PIK3Cβ_h, sequence (P42338 whole entry): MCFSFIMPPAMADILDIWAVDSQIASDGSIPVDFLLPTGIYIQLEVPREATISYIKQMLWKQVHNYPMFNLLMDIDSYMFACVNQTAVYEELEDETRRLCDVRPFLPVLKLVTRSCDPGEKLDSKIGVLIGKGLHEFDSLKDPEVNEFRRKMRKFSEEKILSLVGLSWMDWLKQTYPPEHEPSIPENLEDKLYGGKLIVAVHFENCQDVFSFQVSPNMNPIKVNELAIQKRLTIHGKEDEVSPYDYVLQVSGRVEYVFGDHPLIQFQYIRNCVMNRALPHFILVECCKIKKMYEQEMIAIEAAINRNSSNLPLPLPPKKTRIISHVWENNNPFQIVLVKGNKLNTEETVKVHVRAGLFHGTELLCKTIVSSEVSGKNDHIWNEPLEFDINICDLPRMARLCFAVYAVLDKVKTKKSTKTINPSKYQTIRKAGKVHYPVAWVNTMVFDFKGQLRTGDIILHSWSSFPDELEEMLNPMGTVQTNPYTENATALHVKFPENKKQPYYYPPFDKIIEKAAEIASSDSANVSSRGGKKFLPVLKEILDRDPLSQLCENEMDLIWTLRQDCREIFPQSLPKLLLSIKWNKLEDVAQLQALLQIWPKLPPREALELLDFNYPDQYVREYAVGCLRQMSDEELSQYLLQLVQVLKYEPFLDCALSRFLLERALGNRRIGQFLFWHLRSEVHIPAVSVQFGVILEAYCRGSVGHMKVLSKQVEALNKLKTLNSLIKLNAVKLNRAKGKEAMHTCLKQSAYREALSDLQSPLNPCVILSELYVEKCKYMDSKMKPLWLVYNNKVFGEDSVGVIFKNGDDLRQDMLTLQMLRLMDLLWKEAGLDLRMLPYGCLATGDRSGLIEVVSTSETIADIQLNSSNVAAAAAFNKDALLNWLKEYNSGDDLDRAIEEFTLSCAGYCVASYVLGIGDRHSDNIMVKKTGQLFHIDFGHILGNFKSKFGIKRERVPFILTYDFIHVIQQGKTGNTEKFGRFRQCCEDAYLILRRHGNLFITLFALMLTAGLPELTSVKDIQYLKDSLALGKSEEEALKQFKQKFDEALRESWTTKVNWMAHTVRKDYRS
PIK3Cγ_h, sequence (P48736 whole entry): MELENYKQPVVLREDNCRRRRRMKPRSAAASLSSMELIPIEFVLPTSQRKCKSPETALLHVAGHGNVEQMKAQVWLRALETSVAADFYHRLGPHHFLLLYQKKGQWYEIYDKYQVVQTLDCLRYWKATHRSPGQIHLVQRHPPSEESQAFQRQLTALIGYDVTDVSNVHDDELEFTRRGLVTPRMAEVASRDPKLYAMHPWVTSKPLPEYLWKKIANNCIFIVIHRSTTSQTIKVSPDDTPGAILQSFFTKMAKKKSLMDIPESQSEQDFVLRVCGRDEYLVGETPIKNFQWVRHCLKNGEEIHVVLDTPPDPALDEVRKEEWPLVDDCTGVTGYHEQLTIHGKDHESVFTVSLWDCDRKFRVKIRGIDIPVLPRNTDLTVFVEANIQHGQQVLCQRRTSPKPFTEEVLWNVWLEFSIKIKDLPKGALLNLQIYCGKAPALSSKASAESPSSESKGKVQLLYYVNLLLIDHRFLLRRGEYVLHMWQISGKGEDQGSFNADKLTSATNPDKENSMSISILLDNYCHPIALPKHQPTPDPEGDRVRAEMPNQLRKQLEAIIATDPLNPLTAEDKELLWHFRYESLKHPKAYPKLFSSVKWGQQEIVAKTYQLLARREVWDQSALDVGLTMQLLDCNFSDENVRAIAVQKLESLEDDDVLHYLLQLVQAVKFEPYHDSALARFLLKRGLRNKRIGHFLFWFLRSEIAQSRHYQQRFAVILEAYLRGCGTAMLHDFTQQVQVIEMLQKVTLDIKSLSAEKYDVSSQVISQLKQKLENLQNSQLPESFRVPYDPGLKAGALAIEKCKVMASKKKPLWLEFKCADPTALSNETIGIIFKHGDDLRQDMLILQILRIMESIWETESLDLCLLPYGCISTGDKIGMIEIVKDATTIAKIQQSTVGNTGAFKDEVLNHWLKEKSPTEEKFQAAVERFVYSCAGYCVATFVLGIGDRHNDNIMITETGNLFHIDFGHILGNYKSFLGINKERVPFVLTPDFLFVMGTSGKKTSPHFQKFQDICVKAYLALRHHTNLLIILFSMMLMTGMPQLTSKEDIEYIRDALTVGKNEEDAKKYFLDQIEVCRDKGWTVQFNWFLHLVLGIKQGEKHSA
PIK3Cα_h, sequence (P42336 whole entry): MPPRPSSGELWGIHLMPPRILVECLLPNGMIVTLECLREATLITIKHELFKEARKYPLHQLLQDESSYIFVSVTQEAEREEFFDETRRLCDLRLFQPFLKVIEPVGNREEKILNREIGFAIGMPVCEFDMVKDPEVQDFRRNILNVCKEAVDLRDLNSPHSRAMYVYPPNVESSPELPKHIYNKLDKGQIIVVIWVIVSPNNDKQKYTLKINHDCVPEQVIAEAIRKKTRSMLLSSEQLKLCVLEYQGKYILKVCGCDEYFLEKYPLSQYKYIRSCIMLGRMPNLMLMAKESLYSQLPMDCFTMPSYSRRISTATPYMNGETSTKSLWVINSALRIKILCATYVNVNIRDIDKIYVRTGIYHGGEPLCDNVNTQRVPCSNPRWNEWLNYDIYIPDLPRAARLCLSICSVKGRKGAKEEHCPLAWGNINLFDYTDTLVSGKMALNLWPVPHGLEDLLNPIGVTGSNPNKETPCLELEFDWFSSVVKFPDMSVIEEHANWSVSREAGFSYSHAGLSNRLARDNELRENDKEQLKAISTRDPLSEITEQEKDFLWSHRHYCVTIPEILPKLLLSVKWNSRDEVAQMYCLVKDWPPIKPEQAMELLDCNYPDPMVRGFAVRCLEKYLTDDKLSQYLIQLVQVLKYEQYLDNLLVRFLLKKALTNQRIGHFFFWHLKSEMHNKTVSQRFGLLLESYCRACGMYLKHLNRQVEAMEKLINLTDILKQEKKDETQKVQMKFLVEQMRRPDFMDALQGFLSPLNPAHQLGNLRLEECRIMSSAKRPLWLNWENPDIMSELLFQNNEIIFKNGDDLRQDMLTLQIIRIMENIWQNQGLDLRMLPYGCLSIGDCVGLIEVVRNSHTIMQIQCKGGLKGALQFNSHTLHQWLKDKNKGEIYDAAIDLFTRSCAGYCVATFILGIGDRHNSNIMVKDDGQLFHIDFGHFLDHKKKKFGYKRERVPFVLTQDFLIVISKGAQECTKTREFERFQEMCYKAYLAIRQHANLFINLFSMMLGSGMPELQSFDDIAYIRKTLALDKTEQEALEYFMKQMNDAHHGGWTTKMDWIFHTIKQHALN
PIK3Cδ_h, sequence (O00329 whole entry): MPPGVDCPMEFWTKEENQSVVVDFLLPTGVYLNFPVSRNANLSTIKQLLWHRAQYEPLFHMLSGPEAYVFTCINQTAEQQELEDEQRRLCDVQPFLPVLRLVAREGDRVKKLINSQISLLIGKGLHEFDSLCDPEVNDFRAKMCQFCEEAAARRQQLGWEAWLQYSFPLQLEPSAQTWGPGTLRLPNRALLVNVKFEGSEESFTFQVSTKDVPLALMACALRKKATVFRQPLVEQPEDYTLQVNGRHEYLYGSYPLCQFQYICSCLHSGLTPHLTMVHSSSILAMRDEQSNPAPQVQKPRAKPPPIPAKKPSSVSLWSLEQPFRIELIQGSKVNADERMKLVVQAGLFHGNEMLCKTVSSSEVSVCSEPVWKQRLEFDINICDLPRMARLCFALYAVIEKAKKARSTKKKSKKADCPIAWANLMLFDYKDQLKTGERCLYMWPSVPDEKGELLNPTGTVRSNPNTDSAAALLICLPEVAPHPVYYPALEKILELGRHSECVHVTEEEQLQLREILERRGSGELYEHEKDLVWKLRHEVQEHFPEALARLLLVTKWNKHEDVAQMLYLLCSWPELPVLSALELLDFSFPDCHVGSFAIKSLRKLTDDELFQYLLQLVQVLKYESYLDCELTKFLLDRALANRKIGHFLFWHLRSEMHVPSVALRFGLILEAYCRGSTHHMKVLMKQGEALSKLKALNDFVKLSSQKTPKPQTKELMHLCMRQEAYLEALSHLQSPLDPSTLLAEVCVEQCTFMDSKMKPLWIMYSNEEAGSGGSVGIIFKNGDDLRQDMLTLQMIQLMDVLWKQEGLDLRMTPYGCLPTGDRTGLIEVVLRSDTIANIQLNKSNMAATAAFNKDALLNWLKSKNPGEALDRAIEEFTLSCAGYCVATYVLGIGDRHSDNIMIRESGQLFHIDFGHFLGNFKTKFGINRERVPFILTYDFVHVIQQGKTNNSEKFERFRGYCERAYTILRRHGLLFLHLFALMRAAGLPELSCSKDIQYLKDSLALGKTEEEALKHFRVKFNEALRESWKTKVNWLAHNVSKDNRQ

Row | SMILES | Kd (PIK3Cα_h) [µM] | Kd (PIK3Cβ_h) [µM] | Kd (PIK3Cδ_h) [µM] | Kd (PIK3Cγ_h) [µM] | Kd (MTOR_h) [µM] | IC50 ([1]; Homo sapiens, PC-3, 1 h) [µM] | IC50 ([2]; Homo sapiens, PC-3, 1 h) [µM] | IC50 [1] [µM] | IC50 [2] [µM]
1 | Cc1c(Cc2c(CO)nc3c(-c4ncc[nH]4)cc(N4CCOCC4)nn23)cccc1C(F)(F)F [Compound 20] | 1.7 | 0.0022 | 0.085 | 4.79 | > 10 | 0.033 | ~0.025 |  | 
2 | Cc1c(Cc2c(CO)nc3c(-c4ccn[nH]4)cc(N4CCOCC4)nn23)cccc1C(F)(F)F [Compound 21] | 1.58 | 0.009 | 0.24 | 0.617 | 0.178 | 0.148 | 0.05 |  | 
3 | Cc1c(Cc2c(CO)nc3c(C(=O)O)cc(N4CCOCC4)nn23)cccc1C(F)(F)F [Compound 22] | 1.58 | 0.0012 | 0.048 | > 15.1 | 10.7 | > 0.513 | > 0.513 |  | 
4 | Cc1c(Cc2c(CCO)nc3c(N)cc(N4CCOCC4)nn23)cccc1C(F)(F)F [Compound 23] | 20.9 | 0.003 | 0.276 | 23 | 20.6 | 0.064 | 0.049 |  | 
5 | Cc1c(Cc2c(CCO)nc3c(-c4c[nH]cn4)cc(N4CCOCC4)nn23)cccc1C(F)(F)F [Compound 24] | 1.11 | 0.003 | 0.147 | 3.36 | 2.49 | 0.043 | 0.037 |  | 
6 | Cc1c(Cc2c(CO)nc3c(-c4c[nH]cn4)cc(N4CCOC(C)C4)nn23)cccc1C(F)(F)F (stereo not shown) [Compound 25] | > 30.2 | 0.2 | > 30.2 | > 30.2 | 1.18 |  |  | 0.447 | > 0.513
7 | Cc1c(Cc2c(CO)nc3c(N)cc(N4CCOC(C)C4)nn23)cccc1C(F)(F)F (stereo not shown) [Compound 26] | > 30.2 | 0.331 | 13.8 | 11.7 | 8.51 | > 0.513 | ~0.309 |  | 
8 | Cc1c(Cc2c(CO)nc3c(-c4c[nH]cn4)cc(N4CCOC(C)C4)nn23)cccc1C(F)(F)F (stereo not shown) [Compound 27] | 0.617 | 0.0024 | 0.058 | 0.479 | 0.447 |  |  | 0.042 | 0.014
9 | Cc1nc2c(C(=O)O)cc(N3CCOC(C)C3)nn2c1Cc1cccc(C(F)(F)F)c1C (stereo not shown) [Compound 28] | 2.09 | 0.0025 | 0.083 | 5.5 | 21.4 | ~0.407 | 0.38 |  | 
10 | Cc1nc2c(C(=O)O)cc(C3=CCOCC3)nn2c1Cc1cccc(C(F)(F)F)c1C [Compound 29] | 3.39 | 0.007 | 0.2 | 12.3 | > 30.2 | > 0.513 | ~0.513 |  | 
11 | Cc1c(Cc2c(C(C)O)nc3c(-c4c[nH]cn4)cc(N4CCOCC4)nn23)cccc1C(F)(F)F (stereo not shown) [Compound 30] | 1.18 | 0.0026 | 0.129 | 4.57 | 2.19 | 0.059 | ~0.042 |  | 
12 | Cc1c(Cc2c(C(C)O)nc3c(-c4ncc[nH]4)cc(N4CCOCC4)nn23)cccc1C(F)(F)F (stereo not shown) [Compound 31] | 2.29 | 0.0025 | 0.071 | 17 | > 10 | 0.046 | 0.022 |  | 
13 | Cc1c(Cc2c(C(C)O)nc3c(N)cc(N4CCOCC4)nn23)cccc1C(F)(F)F (stereo not shown) [Compound 32] | 14.8 | 0.0018 | 0.355 | 12 | 22.4 | 0.087 | 0.035 |  | 
14 | Cc1nc2c(N)cc(N3CCOCC3)nn2c1Nc1cccc(C(F)(F)F)c1C [Compound 33] | 5.13 | 0.006 | 0.171 | 11.4 | 20.3 | 0.012 | 0.017 |  | 
15 | Cc1nc2c(-c3ncc[nH]3)cc(N3CCOCC3)nn2c1Nc1cccc(C(F)(F)F)c1C [Compound 34] | 2.24 | 0.003 | 0.081 | 6.92 | > 10 | ~0.056 | ~0.032 |  | 
16 | Cc1nc2c(C(=O)O)cc(N3CCOCC3)nn2c1Nc1cccc(C(F)(F)F)c1C [Compound 36] | 0.669 | 0.0009 | 0.058 | 4.05 | 21.7 | ~0.331 | 0.195 |  | 
17 | Cc1c(Nc2c(CO)nc3c(C(N)=O)cc(N4CCOCC4)nn23)cccc1C(F)(F)F [Compound 37] | 0.575 | 0.0022 | 0.214 | 0.759 | 3.24 | 0.011 | 0.02 |  | 
18 | Cc1nc2c(N)cc(N3CCOCC3)nn2c1Nc1cccc(C(F)(F)F)c1CN1CCOCC1 [Compound 38] | 4.05 | 0.004 | 0.015 | 12.9 | 9.37 | 0.018 | 0.01 |  | 
19 | Cc1cccc(Nc2c(C)nc3c(N)cc(N4CCOCC4)nn23)c1C [Compound 39] | 2.57 | 0.0011 | 0.031 | 8.51 | 4.9 | 0.034 | ~0.043 |  | 
20 | Cc1nc2c(C(N)=O)cc(N3CCOCC3)nn2c1Nc1cccc(C(F)(F)F)c1C [Compound 40] | 2.04 | 0.004 | 0.372 | 3.9 | 20.1 | 0.105 | 0.06 |  | 
21 | Cc1nc2c(-c3cnc[nH]3)cc(N3CCOCC3)nn2c1Nc1cccc(C(F)(F)F)c1CN1CCOCC1 [Compound 41] | 0.275 | 0.007 | 0.012 | 0.955 | 1.7 | ~0.037 | 0.022 |  | 
22 | Cc1nc2c(-c3cnc[nH]3)cc(N3CCOCC3)nn2c1Nc1cccc2c1CNCC2 [Compound 42] | 0.347 | 0.0006 | 0.005 | 2.29 | 1.45 | > 0.513 | > 0.513 |  | 
23 | Cc1nc2c(N)cc(N3CCOCC3)nn2c1Nc1cccc(C(F)(F)F)c1CN1CCS(=O)(=O)CC1 [Compound 43] | 3.31 | 0.002 | 0.047 | 7.76 | > 30.2 | ~0.339 | 0.17 |  | 
24 | Cc1nc2c(N)cc(N3CCOCC3)nn2c1Nc1cccc(F)c1C [Compound 44] | 9.33 | 0.0015 | 0.105 | 14.8 | 5.37 | 0.034 | ~0.011 |  | 
25 | Cc1nc2c(-c3cnc[nH]3)cc(N3CCOCC3)nn2c1Nc1cccc(C(F)(F)F)c1CN1CC(O)C1 [Compound 46] | 0.661 | 0.003 | 0.011 | 0.741 | 1.23 | 0.174 | 0.017 |  | 
26 | Cc1nc2c(N)cc(N3CCOCC3)nn2c1Nc1cccc(C(F)(F)F)c1CN1CCC(S(C)(=O)=O)C1 (stereo not shown) [Compound 47] | 10.5 | 0.0025 | 0.047 | 20.9 | > 30.2 | 0.059 | 0.044 |  | 
27 | Cc1nc2c(N)cc(N3CCOCC3)nn2c1Nc1cccc(C(F)(F)F)c1CN1CC(S(C)(=O)=O)C1 [Compound 48] | 2.75 | 0.0017 | 0.034 | 6.17 | > 30.2 | 0.098 | 0.055 |  | 
28 | Cc1nc2c(N)cc(N3CCOCC3)nn2c1Nc1cccc(C(F)(F)F)c1CN1CCC2(C1)CS(=O)(=O)C2 [Compound 49] | 13.5 | 0.009 | 0.331 | > 30.2 | > 30.2 | 0.045 | ~0.021 |  | 
